The source made the active and inactive calls. The calls are words filed in the database; no cut-off is given here.
Tests used:
[1] = Effect on cleaved PARP level in human NCI-H524 cells assessed as fold change at 1000 nM measured after 14 days by Western blot analysis (reference value: 1.00); format: functional; conditions: time 14 day
[2] = Effect on cleaved PARP level in human COLO-668 cells assessed as fold change at 10 nM measured after 10 days by Western blot analysis (reference value: 1.00); format: functional; conditions: time 10 day
NCI-H1417 [3] = assay: In vivo inhibition of LSD1 in human NCI-H1417 cells xenografted in nude mouse assessed as change in LBH gene expression measured after 24 hrs post single administration by qRT-PCR analysis; format: functional, organism-based; conditions: dose 0.02-135 mg/kg
NCI-H526 [4] = assay: In vivo inhibition of LSD1 in human NCI-H526 cells xenografted in nude mouse assessed as change in ODZ2 gene expression administrated daily for 5 days by qRT-PCR analysis; format: functional, organism-based; conditions: dose 0.02-135 mg/kg, time 5.0 day
[5] = Toxicity in rat assessed as multifocal hemorrhage in organs measured for 28 days; conditions: in vivo, 672 h, time 28 day
[6] = Effect on cleaved PARP level in human NCI-H1694 cells assessed as relative expression at 10 nM measured after 14 days by Western blot analysis (reference value: 0.25); format: functional; conditions: time 14 day
SHP77 = assay: Effect on NCAM gene expression in human SHP77 cells at 1 uM measured after 4 days by qRT-PCR analysis; format: functional, cell-based; conditions: time 4.0 day
[7] = Effect on cleaved PARP level in human NCI-H1417 cells assessed as fold change at 10 nM measured after 10 days by Western blot analysis (reference value: 1.00); format: functional; conditions: time 10 day
NCI-H1417 [8] = assay: In vivo inhibition of LSD1 in human NCI-H1417 cells xenografted in nude mouse assessed as change in SAMD5 gene expression measured after 24 hrs post single administration by qRT-PCR analysis; format: functional, organism-based; conditions: dose 0.02-135 mg/kg
[9] = Effect on cleaved PARP level in human NCI-H1694 cells assessed as relative expression at 100 nM measured after 7 days by Western blot analysis (reference value: 0.25); format: functional; conditions: time 7 day
[10] = Effect on cleaved PARP level in human NCI-H1694 cells assessed as fold change at 1000 nM measured after 7 days by Western blot analysis (reference value: 1.00); format: functional; conditions: time 7 day
[11] = Effect on cleaved PARP level in human NCI-H524 cells assessed as relative expression at 1000 nM measured after 14 days by Western blot analysis (reference value: […]); format: functional; conditions: time 14 day
NCI-H1417 [12] = assay: Cell growth inhibition of human NCI-H1417 cells measured for 4 days; format: functional, cell-based; conditions: time 4.0 day
[13] = Toxicity in dog assessed as thrombocytopenia measured for 28 days; design: species or system Canis lupus familiaris; conditions: in vivo, 672 h, time 28 day
[14] = Toxicity in dog assessed as effect on hemodynamics measured for 28 days; design: species or system Canis lupus familiaris; conditions: in vivo, 672 h, time 28 day
[15] = Effect on cleaved PARP level in human NCI-H889 cells assessed as relative expression at 1000 nM measured after 7 days by Western blot analysis (reference value: 0.34); format: functional; conditions: time 7 day
[16] = Effect on cleaved PARP level in human NCI-H2171 cells assessed as relative expression at 1000 nM measured after 7 days by Western blot analysis (reference value: 0.02); format: functional; conditions: time 7 day
[17] = Effect on cleaved PARP level in human NCI-H526 cells assessed as fold change at 1000 nM measured after 7 days by Western blot analysis (reference value: 1.00); format: functional; conditions: time 7 day
NCI-H526 [18] = assay: In vivo inhibition of LSD1 in human NCI-H526 cells xenografted in nude mouse assessed as change in KIAA1644 gene expression measured after 24 hrs post single administration by qRT-PCR analysis; format: functional, organism-based; conditions: dose 0.06-135 mg/kg
[19] = Effect on cleaved PARP level in human NCI-H526 cells assessed as relative expression at 10 nM measured after 14 days by Western blot analysis (reference value: 0.66); format: functional; conditions: time 14 day
[20] = AUC (0 to infinity) in mouse tumor at 5 mg/kg, po by HPLC/MS/MS analysis; format: ADME, organism-based, Neoplasm
[21] = Effect on cleaved PARP level in human NCI-H889 cells assessed as fold change at 1000 nM measured after 10 days by Western blot analysis (reference value: 1.00); format: functional; conditions: time 10 day
[22] = molecular target: Lysine-specific histone demethylase 1A (Homo sapiens, UniProt O60341)
Description: Binding affinity to LSD1 (unknown origin) using H3K4me2 as substrate assessed as inactivation constant by HRP-coupled amplex red assay

NCI-H526 [23] = assay: Effect on cell cycle in human NCI-H526 cells assessed as cell accumulation at […] phase upto 1000 nM measured for 7 to 14 days by flow cytometry; format: functional, cell-based; conditions: time 7-14 day
[24] = Effect on cleaved PARP level in human NCI-H510 cells assessed as relative expression at 100 nM measured after 7 days by Western blot analysis (reference value: 0.24); format: functional, NCI-H510A; conditions: time 7 day
[25] = Effect on cleaved PARP level in human NCI-H2171 cells assessed as relative expression at 1000 nM measured after 10 days by Western blot analysis (reference value: 0.02); format: functional; conditions: time 10 day
[26] = Effect on cleaved PARP level in human NCI-H510 cells assessed as fold change at 100 nM measured after 14 days by Western blot analysis (reference value: 1.00); format: functional, NCI-H510A; conditions: time 14 day
[27] = Effect on cleaved PARP level in human COLO-668 cells assessed as relative expression at 1000 nM measured after 10 days by Western blot analysis (reference value: 1.07); format: functional; conditions: time 10 day
[28] = Effect on cleaved PARP level in human NCI-H2171 cells assessed as relative expression at 10 nM measured after 14 days by Western blot analysis (reference value: 0.01); format: functional; conditions: time 14 day
[29] = Effect on cleaved PARP level in human NCI-H2171 cells assessed as relative expression at 100 nM measured after 7 days by Western blot analysis (reference value: 0.02); format: functional; conditions: time 7 day
[30] = Effect on cleaved PARP level in human NCI-H69 cells assessed as fold change at 100 nM measured after 14 days by Western blot analysis (reference value: 1.00); format: functional; conditions: time 14 day
[31] = Effect on cleaved PARP level in human NCI-H69 cells assessed as fold change at 1000 nM measured after 7 days by Western blot analysis (reference value: 1.00); format: functional; conditions: time 7 day
[32] = Effect on cleaved PARP level in human NCI-H2171 cells assessed as fold change at 10 nM measured after 7 days by Western blot analysis (reference value: 1.00); format: functional; conditions: time 7 day
[33] = Effect on cleaved PARP level in human NCI-H2171 cells assessed as fold change at 100 nM measured after 7 days by Western blot analysis (reference value: 1.00); format: functional; conditions: time 7 day
[34] = Toxicity in rat assessed as effect on hemodynamics measured for 28 days; conditions: in vivo, 672 h, time 28 day
[35] = Effect on cleaved PARP level in human NCI-H526 cells assessed as fold change at 10 nM measured after 14 days by Western blot analysis (reference value: 1.00); format: functional; conditions: time 14 day
[36] = Cmax in mouse at 5.5 mg/kg, ip by HPLC/MS/MS analysis; format: ADME, organism-based; conditions: in vivo
[37] = Tmax in mouse at 5.5 mg/kg, ip by HPLC/MS/MS analysis; format: ADME, organism-based; conditions: in vivo

With `O=C(O)c1ccc(CN2CCC(CN[C@@H]3C[C@H]3c3ccccc3)CC2)cc1` [GSK2879552] the “fold change (FC)” value [1] was 0.77, the “fold change (FC)” value [2] was 0.75 and the inhibition (NCI-H1417 [3]) was “Dose-Dependent Effect”. For the same compound, the inhibition (NCI-H526 [4]) was “Dose-Dependent Effect”, the Activity [5] was “Toxic” and the Activity [6] was 0.22. For the same compound, the Activity (SHP77) was “inactive”, the “fold change (FC)” value [7] was 1.44 and the inhibition (NCI-H1417 [8]) was “Dose-Dependent Effect”. For the same compound, the Activity [9] was 0.28, the “fold change (FC)” value [10] was 1.44 and the Activity [11] was 1.17. The “growth inhibition (GI)” value (NCI-H1417 [12]) was “inactive”, the Activity [13] was “Toxic” and the Activity [14] was “Toxic”. For the same compound, the Activity [15] was 0.66, the Activity [16] was 0.04 and the “fold change (FC)” value [17] was 1.3. For the same compound, the inhibition (NCI-H526 [18]) was “Dose-Dependent Effect”, the Activity [19] was 0.48 and the AUC(0-inf) [20] was 2690 ng·h/mL. The “fold change (FC)” value [21] was 2.77, the Kinact [22] was 0.11 min⁻¹ and the Activity (NCI-H526 [23]) was “inactive”. The Activity [24] was 0.43, the Activity [25] was 0.02 and the “fold change (FC)” value [26] was 2.92. The Activity [27] was 0.63, the Activity [28] was 0.01 and the Activity [29] was 0.03. The “fold change (FC)” value [30] was 5.03, the “fold change (FC)” value [31] was 2.21 and the “fold change (FC)” value [32] was 1.53. The “fold change (FC)” value [33] was 1.71, the Activity [34] was “Toxic” and the “fold change (FC)” value [35] was 0.73.
With `c1ccc([C@@H]2C[C@H]2NC2CCNCC2)cc1` the Cmax [36] was 466 ng/mL and the Tmax [37] was 18 min.
